pEC50: −log10 of the molar value. Like-named read-outs stand apart in the source and are kept apart here.
What was measured:
[1] = system: HCV replicon (Clone A cells, Huh7, subgenomic hepatits C virus RNA); test: HCV Neo screening assay (HCV replicon, NPTII ELISA); format: cell-based, hepatitis C virus; settings: for pEC50 / inhibition at 25 µM: Hepatitis C virus, Huh-7; for pEC50: Secondary Data, HCV; for inhibition at 25 µM: primary screening, 25 μM final concentration, 24 hours, percent inhibition of viral replication, read-out: HCV Inh; for HCV TI: therapeutic index CC50/EC50, HCV
RSV minigenome = test: RSV minigenome-dependent β-galactosidase expression assay (RSV β-Gal); format: cell-based, respiratory syncytial virus; settings: for pEC50 / inhibition at 25 µM: human respiratory syncytial virus; for pEC50: RSV; for inhibition at 25 µM: primary screening, 25 μM final concentration, 24 hours, percent inhibition of viral replication, read-out: RSV Inh; for RSV TI: therapeutic index CC50/EC50, RSV
WNV (WN-hRuPac cells) = test: WNV antiviral activity, WN-hRuPac cells, Renilla luciferase; format: cell-based, West Nile virus; settings: for pEC50 / inhibition at 25 µM: West Nile virus; for pEC50: read-out: WNV EC50; for inhibition at 25 µM: primary screening, 25 μM final concentration, 24 hours, percent inhibition of viral replication, read-out: WNV Inh; for WNV TI: therapeutic index CC50/EC50, WNV
YFV (YF-hRuPac cells) = test: microbe, parasite or virus in culture; format: cell-based, yellow fever virus; settings: for inhibition at 25 µM / pEC50: Yellow fever virus; for inhibition at 25 µM: 24 h, read-out: YFV Inh; for pEC50: read-out: YFV EC50
DNG (D2-hRuPac cells) = test: DNG antiviral activity, D2-hRuPac cells, Renilla luciferase; format: cell-based, Dengue fever virus; settings: Dengue virus, secondary screening
EBOV minigenome = test: microbe, parasite or virus in culture; format: cell-based, Ebola virus; settings: Zaire ebolavirus; for inhibition at 25 µM: 24 h, read-out: EBOV Inh; for pEC50: read-out: EBOV EC50
SINV (SR19-F-luc cells) = test: SINV antiviral activity, SR19-F-luc cells, Firefly luciferase; format: cell-based; settings: Sindbis virus; for inhibition at 25 µM: primary screening, 25 μM final concentration, 24 hours, percent inhibition of viral replication, read-out: SINV Inh; for pEC50: secondary screening, SR19-F-luc cells
[2] = Secondary Data, read-out: RSV EC50

SMILES | inhibition at 25 µM [1] | pEC50 (RSV minigenome; [2]) | inhibition at 25 µM (RSV minigenome) | RSV TI (RSV minigenome) | pEC50 (WNV (WN-hRuPac cells); Secondary Data, WNV) | inhibition at 25 µM (WNV (WN-hRuPac cells)) | inhibition at 25 µM (YFV (YF-hRuPac cells)) | pEC50 (YFV (YF-hRuPac cells)) | pEC50 (DNG (D2-hRuPac cells)) | inhibition at 25 µM (EBOV minigenome) | pEC50 (EBOV minigenome) | inhibition at 25 µM (SINV (SR19-F-luc cells)) | pEC50 (SINV (SR19-F-luc cells)) | CC50 (in vitro; DNG CC50) | CC50 (in vitro; EBOV CC50) | CC50 (in vitro; HCV CC50) | CC50 (in vitro; RSV CC50) | CC50 (in vitro; SINV CC50) | CC50 (in vitro; WNV CC50) | CC50 (in vitro; YFV CC50) | further results
c1ccc2cc(Nc3c4ccccc4nc4ccccc34)ccc2c1 [Compound 1] | 177% | 5.72 | 99.9% | 25.16 | 5.24 | 65.4% | 77.5% | 5.20 | 5.14 | 39.8% | 4.45 | 34.1% | 4.55 | 47.6 µM | 47.6 µM | 3.83 µM | 47.6 µM | 47.6 µM | 47.6 µM | 47.6 µM | pEC50 [1]: 5.19; HCV TI [1]: 0.59; WNV TI (WNV (WN-hRuPac cells)): 8.34; YFV TI (YFV (YF-hRuPac cells)): 7.5
CCc1ccccc1Nc1c2ccccc2nc2ccccc12 [Compound 2] | 154% | 5.89 | 99.8% | 25.33 | 4.75 | 49.6% | 71.8% | 5.18 | 4.67 | 20.1% | 4.41 | 70.2% | 4.71 | 32.9 µM | 32.9 µM | 6.12 µM | 32.9 µM | 32.9 µM | 32.9 µM | 32.9 µM | pEC50 [1]: 5.10; HCV TI [1]: 0.77; WNV TI (WNV (WN-hRuPac cells)): 1.85; YFV TI (YFV (YF-hRuPac cells)): 4.95
Cc1ccc2nc(C)cc(Nc3ccccc3)c2c1 [Compound 3] | 32.1% | – | 86.3% | 4.63 | – | 38.7% | 41.7% | 4.74 | 4.47 | -44.2% | 4.19 | 76.1% | 5.89 | 52.3 µM | 52.3 µM | 32.3 µM | 52.3 µM | 52.3 µM | 52.3 µM | 52.3 µM | pEC50 (RSV minigenome; read-out: RSV EC50, Secondary Data): 4.95; pEC50 (WNV (WN-hRuPac cells)): 4.52; WNV TI (WNV (WN-hRuPac cells)): 1.75; YFV TI (YFV (YF-hRuPac cells)): 2.84
CCOC(=O)c1ccc(Nc2cc(C)nc3c2ccc2ccccc23)cc1 [Compound 4] | 105% | 4.43 | 47.7% | 1.97 | ≤ 4.12 | 28.4% | 81.7% | 5.37 | 4.49 | 6.57% | 4.23 | -22.2% | ≤ 4.12 | 72.9 µM | 72.9 µM | 32.5 µM | 72.9 µM | 72.9 µM | 72.9 µM | 72.9 µM | pEC50 [1]: 4.81; HCV TI [1]: 2.08; WNV TI (WNV (WN-hRuPac cells)): 0.97; YFV TI (YFV (YF-hRuPac cells)): 17.1
c1cncc(CNc2c3ccccc3nc3ccccc23)c1 [Compound 5] | 211% | 5.55 | 98.5% | 10.2 | 5.15 | 89.3% | 84.7% | 4.95 | 5.44 | 86% | 4.82 | 29.6% | 5.15 | 28.6 µM | 28.6 µM | 9.67 µM | 28.6 µM | 28.6 µM | 28.6 µM | 28.6 µM | pEC50 [1]: 5.75; HCV TI [1]: 5.49; WNV TI (WNV (WN-hRuPac cells)): 3.99; YFV TI (YFV (YF-hRuPac cells)): 2.57
COc1ccc(Nc2cc(C)nc3c2ccc2ccccc23)cc1 [Compound 7] | 104% | 5.00 | 76.9% | 7.5 | ≤ 4.12 | 34.3% | 64.1% | ≤ 4.12 | 4.77 | 85.3% | 4.97 | 7.58% | ≤ 4.12 | ≥ 75 µM | ≥ 75 µM | 14 µM | ≥ 75 µM | ≥ 75 µM | ≥ 75 µM | ≥ 75 µM | pEC50 [1]: 5.23; HCV TI [1]: 2.39
COC(=O)c1ccc(Nc2c3c(nc4ccccc24)CCC3)cc1 [Compound 8] | 98.9% | 5.01 | 75.5% | 7.73 | 4.23 | 49% | 66.8% | 4.59 | 4.21 | 4.74% | 4.26 | 34.9% | 4.62 | ≥ 75 µM | ≥ 75 µM | 71.6 µM | ≥ 75 µM | ≥ 75 µM | ≥ 75 µM | ≥ 75 µM | pEC50 [1]: 6.89; HCV TI [1]: 550.77; WNV TI (WNV (WN-hRuPac cells)): 1.27; YFV TI (YFV (YF-hRuPac cells)): 2.91
Cc1ccc(Nc2cc(C)nc3c2ccc2ccccc23)cc1 [Compound 9] | 98.3% | 5.39 | 88.2% | 17.8 | 4.51 | 33.4% | 76.2% | 5.27 | ≤ 4.12 | -17.1% | 4.21 | 48.2% | ≤ 4.12 | 73 µM | 73 µM | 9.83 µM | 73 µM | 73 µM | 73 µM | 73 µM | pEC50 [1]: 5.75; HCV TI [1]: 5.55; WNV TI (WNV (WN-hRuPac cells)): 2.38; YFV TI (YFV (YF-hRuPac cells)): 13.51
c1coc(CNc2c3c(nc4ccccc24)CCC3)c1 [Compound 10] | 34.6% | 5.60 | 99.6% | 23.29 | 5.01 | 81.2% | 86.2% | 4.84 | 4.61 | 38.1% | 4.36 | 15.9% | 4.16 | 58.5 µM | 58.5 µM | 47.6 µM | 58.5 µM | 58.5 µM | 58.5 µM | 58.5 µM | WNV TI (WNV (WN-hRuPac cells)): 5.97; YFV TI (YFV (YF-hRuPac cells)): 4.06
C=CCNc1c2c(nc3ccccc13)CCC2 [Compound 12] | 10.3% | 5.19 | 31% | 11.17 | 4.71 | 47.5% | 31.3% | 4.21 | 4.16 | 49.8% | 4.34 | 69.4% | 5.16 | 71.7 µM | 71.7 µM | 71 µM | 71.7 µM | 71.7 µM | 71.7 µM | 71.7 µM | WNV TI (WNV (WN-hRuPac cells)): 3.68; YFV TI (YFV (YF-hRuPac cells)): 1.17
CCOC(=O)c1ccc2ncc(C(=O)OCC)c(NCc3ccco3)c2c1 [Compound 13] | 27.4% | 5.53 | 92.1% | 12.07 | 5.32 | 98% | 89.5% | 5.05 | 4.98 | 59% | 5.22 | -12.1% | 4.35 | 35.4 µM | 35.4 µM | ≥ 75 µM | 35.4 µM | 35.4 µM | 35.4 µM | 35.4 µM | WNV TI (WNV (WN-hRuPac cells)): 7.4; YFV TI (YFV (YF-hRuPac cells)): 3.98
COC(=O)c1ccc(Nc2cc(C)nc3cc(Cl)ccc23)cc1 [Compound 14] | 81.2% | 4.43 | 48.4% | 1.46 | ≤ 4.12 | 51.6% | 54.6% | 5.03 | 4.27 | -19.5% | 4.18 | 56.7% | 4.75 | 53.7 µM | 53.7 µM | ≥ 75 µM | 53.7 µM | 53.7 µM | 53.7 µM | 53.7 µM | pEC50 [1]: 5.89; HCV TI [1]: 57.69; WNV TI (WNV (WN-hRuPac cells)): 0.72; YFV TI (YFV (YF-hRuPac cells)): 5.82

Reference: patent publication US20090221624A1, “4-AMINOQUINOLINE COMPOUNDS FOR TREATING VIRUS-RELATED CONDITIONS” (priority 2005, published 2009)
